Assays:
wt PPARG = molecular target: T1, wt PPARG (Homo sapiens, UniProt P37231); assay: Gel-based competitive IC50 determination in 293T lysates: WT PPARγ; assay type: binding; details: wt PPARG expressed in 293T cells, lysate, 1 h, then 10 μM 24c-Cy3
T1 construct: host or cells: 293T
Excerpt: Finally, we sought to understand the molecular basis for PPARγ binding by the synthetic analogues of deoxyelephantopin through identification of the precise covalently modified amino acid site. There is literature precedent for oxidized fatty acids containing an α,β-unsaturated ketone to form a covalent bond with a cysteine in the ligand-binding site of PPARγ[53]. More recently, synthetic ligands binding reversibly to a distinct site were identified. […] Bearing in mind that the structurally simplified, and thus less prone to MS/MS fragmentation, probe 23c binds PPARγ as efficiently as 24c (Supplementary Fig. 13), we treated the recombinant nuclear receptor with the former compound, digested the protein and analysed the resulting peptides by LC–MS/MS. […]
Supplementary figure 21: Top: Fluorescence gels corresponding to the IC50 curves presented in the main text Figure 8b. γ fluorescence signal in percentage after 19a treatment. […]
Biological materials. […] Protein concentration was determined using the Bradford assay (Bio-Rad).
Cell culture and preparation of lysates. […] Cells were lysed by sonication to form cell lysates and protein concentration was determined using the Bradford […]

PPARγ = molecular target: T2, PPARγ (Homo sapiens, UniProt P37231); assay: Gel-based in situ competition of PPARγ overexpressed in HeLa cells; assay type: cell-based; design: host or cells: HeLa; details: HeLa cells expressing PPARγ, 20 µM in situ 4 h, then 10 µM 24c-Cy3
T2 sequence (P37231 1-505): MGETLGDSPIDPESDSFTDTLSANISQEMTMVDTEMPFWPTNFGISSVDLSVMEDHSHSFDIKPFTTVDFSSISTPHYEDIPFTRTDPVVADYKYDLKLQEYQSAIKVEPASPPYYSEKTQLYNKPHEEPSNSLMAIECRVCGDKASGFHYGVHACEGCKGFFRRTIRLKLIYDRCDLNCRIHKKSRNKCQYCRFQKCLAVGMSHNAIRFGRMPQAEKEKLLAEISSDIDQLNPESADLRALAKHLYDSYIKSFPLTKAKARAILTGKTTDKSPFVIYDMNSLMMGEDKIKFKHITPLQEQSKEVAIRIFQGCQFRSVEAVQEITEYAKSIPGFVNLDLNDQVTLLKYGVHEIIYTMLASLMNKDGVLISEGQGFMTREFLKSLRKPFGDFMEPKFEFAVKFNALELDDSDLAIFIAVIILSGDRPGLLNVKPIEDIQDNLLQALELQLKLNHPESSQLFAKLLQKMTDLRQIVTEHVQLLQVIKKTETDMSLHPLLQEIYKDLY

Compound	IC50 (wt PPARG) [µM]	competition of PPARγ labelling by 24c-Cy3 (PPARγ)
C=C(C)C(=O)O[C@H]1CC2=C[C@H](C/C=C\[C@H]3OC(=O)C(=C)[C@H]13)OC2=O [19a]	19	–
C=C(C)C(=O)O[C@H]1CC2=C[C@@H](C/C(C)=C/[C@H]3OC(=O)C(=C)[C@H]13)OC2=O [deoxyelephantopin]	–	efficient competition
